Assay results published in US9403847B2, “Substituted heteroaryl fused derivatives as P13K inhibitors” (Incyte Corporation, priority 2009, dated 2016).
Counter-ions that a name gives are not always drawn.

Assays:
[1] = biological target: T1, PI3Kδ (p110δ/p85α) (Homo sapiens, UniProt O00329); test: PI3Kδ scintillation proximity assay (enzyme assay A); assay type: biochemical; details: 20 μM PIP2, 20 μM ATP, 4 nM PI3Kδ, 210 minutes, room temperature; read-out: IC50 data for PI3Kδ enzyme assay A (PI3Kd Enzyme Assay A)
T1 construct: purchased Millipore (Bedford, Mass.)
T1 sequence (O00329 whole entry): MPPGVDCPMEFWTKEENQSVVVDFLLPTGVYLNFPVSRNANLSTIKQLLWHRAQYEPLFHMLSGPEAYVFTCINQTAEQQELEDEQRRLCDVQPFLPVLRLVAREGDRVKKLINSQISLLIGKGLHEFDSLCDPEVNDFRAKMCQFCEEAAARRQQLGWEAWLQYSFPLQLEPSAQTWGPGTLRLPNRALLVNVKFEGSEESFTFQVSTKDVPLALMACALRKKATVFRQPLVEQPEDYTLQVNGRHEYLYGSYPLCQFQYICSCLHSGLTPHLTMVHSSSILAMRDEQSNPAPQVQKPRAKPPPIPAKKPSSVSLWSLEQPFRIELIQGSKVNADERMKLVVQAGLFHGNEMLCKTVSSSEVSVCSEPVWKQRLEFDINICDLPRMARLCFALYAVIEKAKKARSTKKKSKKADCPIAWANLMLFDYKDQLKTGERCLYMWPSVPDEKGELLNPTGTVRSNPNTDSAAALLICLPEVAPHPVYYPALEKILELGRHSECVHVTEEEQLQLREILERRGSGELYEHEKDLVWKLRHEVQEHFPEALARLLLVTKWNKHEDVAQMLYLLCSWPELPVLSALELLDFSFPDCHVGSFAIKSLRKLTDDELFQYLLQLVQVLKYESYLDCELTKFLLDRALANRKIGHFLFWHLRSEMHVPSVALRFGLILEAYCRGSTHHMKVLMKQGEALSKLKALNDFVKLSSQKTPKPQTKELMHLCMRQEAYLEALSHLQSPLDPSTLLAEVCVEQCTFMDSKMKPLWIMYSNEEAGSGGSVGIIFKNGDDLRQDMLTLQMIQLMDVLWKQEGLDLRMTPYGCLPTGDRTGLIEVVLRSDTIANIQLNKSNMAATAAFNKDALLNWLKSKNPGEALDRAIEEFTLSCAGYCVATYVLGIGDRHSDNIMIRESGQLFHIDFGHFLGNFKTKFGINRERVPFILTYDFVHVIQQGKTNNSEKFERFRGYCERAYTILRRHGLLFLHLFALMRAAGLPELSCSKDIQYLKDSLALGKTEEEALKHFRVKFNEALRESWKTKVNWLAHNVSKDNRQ
T1 sequence (P27986 whole entry partner): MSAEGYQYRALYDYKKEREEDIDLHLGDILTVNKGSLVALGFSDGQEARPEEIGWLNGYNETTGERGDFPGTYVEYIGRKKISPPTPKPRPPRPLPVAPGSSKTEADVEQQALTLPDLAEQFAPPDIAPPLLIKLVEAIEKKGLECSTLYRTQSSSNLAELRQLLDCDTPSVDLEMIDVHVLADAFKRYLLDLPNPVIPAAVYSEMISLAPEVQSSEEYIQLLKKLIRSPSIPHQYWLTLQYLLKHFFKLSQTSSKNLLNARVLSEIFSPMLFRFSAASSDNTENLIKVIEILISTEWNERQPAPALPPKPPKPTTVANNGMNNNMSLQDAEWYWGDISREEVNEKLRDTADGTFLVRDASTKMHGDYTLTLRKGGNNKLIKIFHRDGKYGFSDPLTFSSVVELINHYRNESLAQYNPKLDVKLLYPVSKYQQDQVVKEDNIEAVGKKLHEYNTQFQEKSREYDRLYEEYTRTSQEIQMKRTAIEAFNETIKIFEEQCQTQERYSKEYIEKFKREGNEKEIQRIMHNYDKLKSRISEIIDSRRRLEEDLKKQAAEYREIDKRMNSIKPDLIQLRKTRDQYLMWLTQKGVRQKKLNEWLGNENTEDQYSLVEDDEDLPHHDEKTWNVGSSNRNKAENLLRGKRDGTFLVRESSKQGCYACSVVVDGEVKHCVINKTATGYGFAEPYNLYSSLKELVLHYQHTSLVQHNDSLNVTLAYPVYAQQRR
Description: Materials: [γ-^33P]ATP (10 mCi/mL) was purchased from PerkinElmer (Waltham, Mass.). Lipid kinase substrate, D-myo-Phosphatidylinositol 4,5-bisphosphate (PtdIns(4,5)P2)D (+)-sn-1,2-di-O-octanoylglyceryl, 3-O-phospho linked (PIP2), CAS 204858-53-7, was purchased from Echelon Biosciences (Salt Lake City, Utah). PI3Kδ (p110δ/p85α) was purchased from Millipore (Bedford, Mass.). ATP, MgCl2, DTT, EDTA, MOPS and CHAPS were purchased from Sigma-Aldrich (St. Louis, Mo.). Wheat Germ Agglutinin (WGA) YSi SPA Scintillation Beads was purchased from GE healthcare life sciences (Piscataway, N.J.).
Assay: The kinase reaction was conducted in polystyrene 384-well matrix white plate from Thermo Fisher Scientific in a final volume of 25 μL. Inhibitors were first diluted serially in DMSO and added to the plate wells before the addition of other reaction components. The final concentration of DMSO in the assay was 0.5%. The PI3K assays were carried out at room temperature in 20 mM MOPS, pH 6.7, 10 mM MgCl2, 5 mM DTT and CHAPS 0.03%. Reactions were initiated by the addition of ATP, the final reaction mixture consisted of 20 μM PIP2, 20 μM ATP, 0.2 μCi [γ-^33P] ATP, 4 nM PI3Kδ. Reactions were incubated for 210 minutes and terminated by the addition of 40 μL SPA beads suspended in quench buffer: 150 mM potassium phosphate pH 8.0, 20% glycerol. 25 mM EDTA, 400 μM ATP. The final concentration of SPA beads is 1.0 mg/mL. After the plate sealing, plates were shaken overnight at room temperature and centrifuged at 1800 rpm for 10 minutes, the radioactivity of the product was determined by scintillation counting on Topcount (PerkinElmer). IC50 determination was performed by fitting the curve of percent control activity versus the log of the inhibitor concentration using the GraphPad Prism 3.0 software.

[2] = tested on: B cells; test: B cell proliferation assay ([3H]-thymidine incorporation, anti-human IgM stimulation); assay type: cell-based; details: 72 h, purified human B cells, goat F(ab')2 anti-human IgM 10 μg/ml, three days plus 12 hrs [3H]-thymidine
Method: To acquire B cells, human PBMC were isolated from the peripheral blood of normal, drug free donors by standard density gradient centrifugation on Ficoll-Hypague (GE Healthcare, Piscataway, N.J.) and incubated with anti-CD19 microbeads (Miltenyi Biotech, Auburn, Calif.). The B cells were then purified by positive immunosorting using an autoMacs (Miltenyi Biotech) according to the manufacture's instruction.
The purified B cells (2×10^5/well/200 μL) were cultured in 96-well ultra-low binding plates (Corning, Corning, N.Y.) in RPMI1640, 10% FBS and goat F(ab′)2 anti-human IgM (10 μg/ml) (Invitrogen, Carlsbad, Calif.), in the presence of different amount of test compounds, for three days. [^3H]-thymidine (1 μCi/well) (PerkinElmer, Boston, Mass.) in PBS was then added to the B cell cultures for an additional 12 hrs before the incorporated radioactivity was separated by filtration with water through GF/B filters (Packard Bioscience, Meriden, Conn.) and measured by liquid scintillation counting with a TopCount (Packard Bioscience). […] See Table 2 for data related to compounds of the invention.

Row | IC50 [1] [nM] | SMILES | IC50 [2] [nM]
1 | > 2000 | Cc1ccn2c(-c3cccc(F)c3)c(C(C)Nc3ncnc4[nH]cnc34)nc2c1 (stereo not shown) [Example 9, N-{1-[3-(3-Fluorophenyl)-7-methylimidazo[1,2-a]pyridin-2-yl]ethyl}-9H-purin-6-amine bis(trifluoroacetate)] | > 5000
2 | < 200 | CC(Nc1ncnc2[nH]cnc12)c1nc2c(F)cccn2c1-c1cccc(F)c1 (stereo not shown) [Example 14, N-{1-[8-Fluoro-3-(3-fluorophenyl)imidazo[1,2-a]pyridin-2-yl]ethyl}-9H-purin-6-amine] | 500 to 1000
3 | < 200 | CC(Nc1ncnc2[nH]cnc12)c1nc2ccccn2c1-c1cccc(F)c1 (stereo not shown) [Example 2, N-{1-[3-(3-Fluorophenyl)imidazo[1,2-a]pyridin-2-yl]ethyl}-9H-purin-6-amine] | < 500
4 | 990 to 2000 | CC(Nc1ncnc2[nH]cnc12)c1nc2c(C#N)cccn2c1-c1cccc(F)c1 (stereo not shown) [Example 16, 3-(3-Fluorophenyl)-2-[1-(9H-purin-6-ylamino)ethyl]imidazo[1,2-a]pyridine-8-carbonitrile bis(trifluoroacetate)] | –
5 | 200 to 500 | CC(Nc1ncnc2[nH]cnc12)c1nc2ccccn2c1-c1cccc(F)c1F (stereo not shown) [Example 18, N-{1-[3-(2,3-Difluorophenyl)imidazo[1,2-a]pyridin-2-yl]ethyl}-9H-purin-6-amine] | 1000 to 2500
6 | < 200 | CC(Nc1ncnc2[nH]cnc12)c1nc2ccccn2c1-c1cc(F)ccc1F (stereo not shown) [Example 21, N-{1-[3-(2,5-Difluorophenyl)imidazo[1,2-a]pyridin-2-yl]ethyl}-9H-purin-6-amine] | 2500 to 5000
7 | < 200 | Cc1cccc2nc(C(C)Nc3ncnc4[nH]cnc34)c(-c3cc(F)cc(F)c3)n12 (stereo not shown) [Example 1, N-{1-[3-(3,5-Difluorophenyl)-5-methylimidazo[1,2-a]pyridin-2-yl]ethyl}-9H-purin-6-amine] | < 500
8 | > 2000 | CC(Nc1ncnc2[nH]cnc12)c1nc2sccn2c1-c1cc(F)cc(F)c1 (stereo not shown) [Example 3, N-{1-[5-(3,5-Difluorophenyl)imidazo[2,1-b][1,3]thiazol-6-yl]ethyl}-9H-purin-6-amine bis(trifluoroacetate)] | –
9 | 990 to 2000 | Cc1ccccc1-c1c(C(C)Nc2ncnc3[nH]cnc23)nc2ccccn12 (stereo not shown) [Example 20, N-{1-[3-(2-Methylphenyl)imidazo[1,2-a]pyridin-2-yl]ethyl}-9H-purin-6-amine] | –
10 | < 200 | CC(Nc1ncnc2[nH]cnc12)c1nc2cc(Cl)ccn2c1-c1cccc(F)c1 (stereo not shown) [Example 13, N-{1-[7-Chloro-3-(3-fluorophenyl)imidazo[1,2-a]pyridin-2-yl]ethyl}-9H-purin-6-amine] | –

Continued, molecule first:

Row | SMILES | IC50 [1] [nM] | IC50 [2] [nM]
11 | CC(Nc1ncnc2[nH]cnc12)c1nn2ccccc2c1-c1cc(F)cc(F)c1 (stereo not shown) [Example 25, N-{1-[3-(3,5-Difluorophenyl)pyrazolo[1,5-a]pyridin-2-yl]ethyl}-9H-purin-6-amine trifluoroacetate] | < 200 | 500 to 1000
12 | Cc1ccc(-c2c(C(C)Nc3ncnc4[nH]cnc34)nc3ccccn23)cc1 (stereo not shown) [Example 17, N-{1-[3-(4-Methylphenyl)imidazo[1,2-a]pyridin-2-yl]ethyl}-9H-purin-6-amine] | 500 to 990 | –
13 | CC(Nc1ncnc2[nH]cnc12)c1nc2cccc(Cl)n2c1-c1cccc(F)c1 (stereo not shown) [Example 7, N-{1-[5-Chloro-3-(3-fluorophenyl)imidazo[1,2-a]pyridin-2-yl]ethyl}-9H-purin-6-amine tris(trifluoroacetate)] | < 200 | < 500
14 | CC(Nc1ncnc2[nH]cnc12)c1nc2c(Cl)cccn2c1-c1cccc(F)c1 (stereo not shown) [Example 11, N-{1-[8-Chloro-3-(3-fluorophenyl)imidazo[1,2-a]pyridin-2-yl]ethyl}-9H-purin-6-amine bis(trifluoroacetate)] | < 200 | 500 to 1000
15 | CC(Nc1ncnc2[nH]cnc12)c1nc2c(C(F)(F)F)cccn2c1-c1cccc(F)c1 (stereo not shown) [Example 15, N-{1-[3-(3-Fluorophenyl)-8-(trifluoromethyl)imidazo[1,2-a]pyridin-2-yl]ethyl}-9H-purin-6-amine bis(trifluoroacetate)] | 990 to 2000 | –
16 | Cc1cn2c(-c3cccc(F)c3)c(C(C)Nc3ncnc4[nH]cnc34)nc2s1 (stereo not shown) [Example 5, N-{1-[5-(3-Fluorophenyl)-2-methylimidazo[2,1-b][1,3]thiazol-6-yl]ethyl}-9H-purin-6-amine] | > 2000 | 2500 to 5000
17 | CC(Nc1ncnc2[nH]cnc12)c1nc2ccccn2c1-c1ccccc1F (stereo not shown) [Example 19, N-{1-[3-(2-Fluorophenyl)imidazo[1,2-a]pyridin-2-yl]ethyl}-9H-purin-6-amine] | 200 to 500 | < 500
18 | CC(Nc1ncnc2[nH]cnc12)c1nc2ccccn2c1-c1cc(F)cc(F)c1 (stereo not shown) [Example 23, N-{1-[3-(3,5-Difluorophenyl)imidazo[1,2-a]pyridin-2-yl]ethyl}-9H-purin-6-amine] | 200 to 500 | 1000 to 2500
19 | Cc1cccn2c(-c3cccc(F)c3)c(C(C)Nc3ncnc4[nH]cnc34)nc12 (stereo not shown) [Example 10, N-{1-[3-(3-Fluorophenyl)-8-methylimidazo[1,2-a]pyridin-2-yl]ethyl}-9H-purin-6-amine bis(trifluoroacetate)] | < 200 | < 500
20 | CC(Nc1ncnc2[nH]cnc12)c1nc2ccc(Cl)cn2c1-c1cccc(F)c1 (stereo not shown) [Example 6, N-{1-[6-Chloro-3-(3-fluorophenyl)imidazo[1,2-a]pyridin-2-yl]ethyl}-9H-purin-6-amine bis(trifluoroacetate)] | < 200 | < 500
21 | Cc1csc2nc(C(C)Nc3ncnc4[nH]cnc34)c(-c3cccc(F)c3)n12 (stereo not shown) [Example 4, N-{1-[5-(3-Fluorophenyl)-3-methylimidazo[2,1-b][1,3]thiazol-6-yl]ethyl}-9H-purin-6-amine bis(trifluoroacetate)] | 500 to 990 | 1000 to 2500
22 | Cc1cccc(-c2c(C(C)Nc3ncnc4[nH]cnc34)nc3ccccn23)c1 (stereo not shown) [Example 22, N-{1-[3-(3-Methylphenyl)imidazo[1,2-a]pyridin-2-yl]ethyl}-9H-purin-6-amine] | 500 to 990 | –
23 | CC(Nc1ncnc2[nH]cnc12)c1nc2ccccn2c1-c1ccc(F)cc1 (stereo not shown) [Example 24, N-{1-[3-(4-Fluorophenyl)imidazo[1,2-a]pyridin-2-yl]ethyl}-9H-purin-6-amine] | 990 to 2000 | –
24 | Cc1ccc2nc(C(C)Nc3ncnc4[nH]cnc34)c(-c3cccc(F)c3)n2c1 (stereo not shown) [Example 8, N-{1-[3-(3-Fluorophenyl)-6-methylimidazo[1,2-a]pyridin-2-yl]ethyl}-9H-purin-6-amine bis(trifluoroacetate)] | 500 to 990 | 1000 to 2500
